Where two headings read alike, the source gives them in different places.
Legend:
[1] = Pharmacokinetics after a single SC or PO dose; format: in vivo, mouse; details: for Tmax: read-out: Observed Tmax
Procedure: The pharmacokinetic parameters of 4b following dosing with either 5 mg/kg subcutaneous (sc) injection using the soluble formulation, or 4b per oral (po) by gavage (50 mg/kg in suspension) in mice plasma and whole brain homogenate are shown in Fig. 4 and Table 1. Triplicate dose formulation samples were retained and analyzed to ensure an accurate concentration of 4b was injected. The sc dose was calculated to be on average 84.3% of the 5 mg/kg target dose. Therefore, for PK analysis purposes, the dose level for this group was adjusted to 4.22 mg eq./kg based on the reported average dose formulation concentration and calculation parameters were adjusted accordingly. The po gavage dose was accurate at 50 mg/kg (within 104% of the nominal concentration of 10.0 mg/mL), and triplicate sampling from the vial (1 per strata; top, middle, and bottom) confirmed that the suspension dosed was homogeneous.
All dose formulation procedures were conducted under yellow lighting conditions to protect 4b from light. For the subcutaneous dose group, 2.504 mg 4b was weighed, and transferred into a formulation container. NMP (0.05 mL) was added and the contents were vortexed until 4b was completely dissolved. With continuous vortexing after each addition, PEG400 (0.45 mL), Solutol HS-15 (0.25 mL) and finally 1% Lutrol F68 in RODI water (1.75 mL) followed by sonication for 6 min. The formulation was filtered into a sterile serum vial using a 0.22 µm Millex GV PVDF filter. The resultant formulation was a clear colorless solution.
For the oral dose group, 4b was weighed (21.138 mg) and transferred to a formulation container. The prepared vehicle (0.5% CMC, 2.11 mL) was transferred into the formulation container, and the contents were stirred and sonicated for a total of 20 min. The resultant formulation was a white homogenous suspension.
Whole blood samples (225 µL each ∼90 µL plasma) were collected at each time point per animal into tubes containing K2EDTA. Samples were held on wet ice prior to centrifugation. Mice were bled twice; the first bleed was made via the submandibular facial vein, the second bleed was a terminal collection via cardiac puncture. […] The entire volume of the plasma sample was then transferred to individual tubes contained in a 96-well Matrix plate kept chilled in icy water through the entire process until storage at −70°C ±10°C. Collected plasma samples were stored at −70°C ±10°C until transferred to the analytical laboratory frozen on dry ice for bioanalysis.
The brain of each animal was collected following CO2 euthanasia and terminal bleeding. Each brain was rinsed with saline once removed from the body (to flush away any blood that may have been present), snap frozen in liquid nitrogen, and stored individually in 15 mL conical tubes at −70°C ±10°C.
Prior to extraction, acetonitrile: water (3∶1, v/v) was added to each tissue sample at a tissue: solvent ratio of 1∶3 (w/v) or 1∶2.536 (w/w), and homogenized using an OMNI tissue homogenizer. The actual volume of extraction buffer or organic solvent added to each tissue was recorded. Samples were kept chilled in icy water through the entire process until processed for 4b extraction. Immediately prior to extraction, tissue homogenates were thoroughly vortexed and aliquoted into 96-well plate(s). The entire process, from tissue homogenization to placing the samples in the tubes for 4b extraction, was conducted within 8 h.
primary stock solution was prepared at 1 mg eq./mL in DMSO. The matrix calibration standards were prepared at 1, 2, 5, 10, 50, 250, 1000, 2500, 5000 and 10000 ng eq./mL in mouse plasma for plasma, and 0.25, 0.5, 1.25, 2.5, 12.5, 62.5, 250, 625, 1250, 2500 ng eq./mL in tissue homogenate for tissue analysis. Plasma samples were quantified against an external calibration curve generated in control plasma from male C57BL/6NCRL mice. Tissue samples were quantified against an external calibration standard curve generated in control brain tissue from male C57BL/6NCRL mice. […]

[2] = tested on: FXN; set-up: method as in PMID 16921367; details: cited from earlier work
[3] = C57BL/6NCRL, mouse, brain/plasma, po 50 mg eq./kg, mean (standard deviation), N = 3, read-out: B:P
[4] = C57BL/6NCRL, mouse, brain/plasma, sc 4.22 mg eq./kg, mean (standard deviation), N = 3, read-out: B:P

## Nc1ccccc1NC(=O)CCCCCC(=O)Nc1ccccc1 [Compound 4b]
[1]; 150 mg/kg
  brain concentration in the acute sc pharmacodynamic trial, fold higher than by oral dosing: ~65 fold
[1]; C57BL/6NCRL, mouse, 4.22 mg/kg, mice, SC 4.22 mg eq./kg, plasma
  AUC(0-inf): 1.63 µM·h
[1]; C57BL/6NCRL, mouse, 4.22 mg/kg, mice, SC 4.22 mg eq./kg, plasma, read-out: T1/2 (converted)
  half-life: 39.6 min
[1]; C57BL/6NCRL, mouse, 50 mg/kg, mice, PO 50 mg eq./kg, brain
  AUC(0-inf): 0.129 µM·h
[1]; C57BL/6NCRL, mouse, 50 mg/kg, mice, PO 50 mg eq./kg, brain, read-out: T1/2 (converted)
  half-life: 182 min
[1]; C57BL/6NCRL, mouse, 50 mg/kg, mice, PO 50 mg eq./kg, plasma
  AUC(0-inf): 1.08 µM·h
[1]; C57BL/6NCRL, mouse, 50 mg/kg, mice, PO 50 mg eq./kg, plasma, read-out: T1/2 (converted)
  half-life: 166 min
[1]; C57BL/6NCRL, mouse, brain, po, 50 mg/kg, mice, PO 50 mg eq./kg, brain, read-out: Observed Cmax
  Cmax: 24 nM
[1]; C57BL/6NCRL, mouse, brain, po, 50 mg/kg, mice, PO 50 mg eq./kg, brain
  Tmax: 60 min
[1]; C57BL/6NCRL, mouse, brain, sc, 4.22 mg/kg, mice, SC 4.22 mg eq./kg, brain, read-out: Observed Cmax
  Cmax: 134 nM
[1]; C57BL/6NCRL, mouse, brain, sc, 4.22 mg/kg, mice, SC 4.22 mg eq./kg, brain
  Tmax: 30 min
[1]; [3]
  Kp at 0.5 hr: 0.05
  Kp at 1 hr: 0.08
[1]; C57BL/6NCRL, mouse, brain/plasma, po 50 mg eq./kg, 8 hr, mean (standard deviation), N = 3, read-out: B:P
  Kp at 8 hr: 0.2
[1]; [4]
  Kp at 0.5 hr: 0.09
  Kp at 1 hr: 0.06
[1]; C57BL/6NCRL, mouse, plasma, 50 mg/kg, mice, po 50 mg eq/kg
  AUC: 1.08 µM·h
[1]; C57BL/6NCRL, mouse, plasma, po, 50 mg/kg, mice, PO 50 mg eq./kg, plasma, read-out: Observed Cmax
  Cmax: 1130 nM
[1]; C57BL/6NCRL, mouse, plasma, po, 50 mg/kg, mice, PO 50 mg eq./kg, plasma
  Tmax: ≤ 30 min
[1]; C57BL/6NCRL, mouse, plasma, po, 50 mg/kg, mice, po 50 mg eq/kg, read-out: plasma Cmax
  Cmax: 1300 nM
[1]; C57BL/6NCRL, mouse, plasma, sc, 4.22 mg eq./kg, after subcutaneous dosing, read-out: plasma half-life
  half-life: ~40 min
[1]; C57BL/6NCRL, mouse, plasma, sc, 4.22 mg/kg, mice, SC 4.22 mg eq./kg, plasma, read-out: Observed Cmax
  Cmax: 1340 nM
[1]; C57BL/6NCRL, mouse, plasma, sc, 4.22 mg/kg, mice, SC 4.22 mg eq./kg, plasma
  Tmax: ≤ 30 min
[1]; C57BL/6NCRL, mouse, plasma, sc, 4.22 mg/kg, mice, sc 4.22 mg/kg, read-out: plasma Cmax
  Cmax: 1340 nM
[1]; C57BL/6NCRL, mouse, plasma, mice, sc 4.22 mg/kg
  AUC: 1.63 µM·h
[1]; extrapolated to 150 mg/kg s.c., assuming linear kinetics
  estimated brain Cmax: 4000 to 5000 nM
[1]; extrapolated to oral bolus of 150 mg/kg
  estimated brain Cmax: ~72 nM
[1]; mice, PO 50 mg eq./kg, brain, read-out: Observed Cmax
  Cmax: 24.3 nM
[1]; po 50 mg/kg, after 8 h
  brain concentration (below LLQ): < 2.3 nM eq.
  plasma concentration (below LLQ): < 3.07 nM eq.
[1]; sc 4.22 mg/kg eq, after 4 h
  plasma concentration (below LLQ): < 3.07 nM eq.
[1]; sc 4.22 mg/kg eq, after 8 h
  brain concentration (below LLQ): < 2.3 nM eq.
[2]; at 2.5 µM
  increase in FXN protein levels: 3.5 fold
[2]; at 5 µM
  enhancement of FXN mRNA: 2.5 fold
